Consider one molecule from publication PMC9413440, “An Iterative Approach Guides Discovery of the FabI Inhibitor Fabimycin, a Late-Stage Antibiotic Candidate with In Vivo Efficacy against Drug-Resistant Gram-Negative Infections” (ACS Central Science, 2022).

In assay [1] the test system is Bacteroides cellulosilyticus KLE 2342. The assay is described as follows: MIC, commensal bacteria. It is filed as cell-based. To be noted: KLE2342. As for the experimental part:
(§1) II. Materials and Methods for Biological Experiments
(§2) S. aureus ATCC 29213 and E. coli MG1655 were obtained from the American Type Culture Collection (ATCC). E. coli BW25113 and E. coli JW5503 were obtained from the Keio Collection. AR-bank strains were obtained from the Centers for Disease Control and Prevention and FDA Antibiotic Resistance Isolate Bank.
(§3) Antimicrobial susceptibility tests
(§4) Susceptibility testing was performed in biological triplicate, unless noted otherwise, using the micro-dilution broth method as outlined by the Clinical and Laboratory Standards Institute. Bacteria were cultured with cation-adjusted Mueller Hinton broth (Sigma Aldrich, catalogue number: 90922). […]
(§5) NH3: m/z 391.2 → 171.0. Fabimycin: m/z 405.3 → 145.3. Power analysis was not used to determine the number of replicates. Error bars represent the standard error of the mean of three biological replicates. All compounds evaluated in biological assays were ≥95% pure.

Assay [2] relates to Bacteroides vulgatus KLE 2303. The assay is described as follows: MIC, commensal bacteria. Type of assay: cell-based. Conditions: Phocaeicola vulgatus, KLE2303. As for the experimental part:
as §1, §2, §3, §4, §5

Assay [3] concerns Bifidobacterium longum ATCC BAA999. The assay is described as follows: MIC, commensal bacteria. Type of assay: cell-based. Conditions: ATCCBAA999. As for the experimental part:
as §1, §2, §3, §4, §5

Assay [4] concerns Blautia producta ATCC 27340. The assay is described as follows: MIC, commensal bacteria. Conditions: ATCC27340. It is filed as cell-based. Here is the method: as §1, §2, §3, §4, §5
In assay [5] the test system is Enterococcus faecalis KLE 2341. Put plainly: MIC, commensal bacteria. It is filed as cell-based. Conditions: KLE2341. Here is the method: as §1, §2, §3, §4, §5
For assay [6], the system named is Faecalibacterium prausnitzii ATCC 27768. The assay is described as follows: MIC, commensal bacteria. It is filed as cell-based. To be noted: ATCC27768. Here is the method:
as §1, §2, §3, §4, §5

Assay [7] deals with Lactobacillus reuteri ATCC 23272. Put plainly: MIC, commensal bacteria. Type of assay: cell-based. Conditions: Limosilactobacillus reuteri, ATCC23272. Here is the method: as §1, §2, §3, §4, §5
Assay [8] deals with Streptococcus parasanguinis KLE 2375. The assay is described as follows: MIC, commensal bacteria. Type of assay: cell-based. Conditions: KLE2375. Here is the method: as §1, §2, §3, §4, §5
Assay [9] relates to K. pneumoniae clinical isolates (n=100). The assay is described as follows: MIC50/MIC90, clinical isolate panel. It is filed as cell-based. Conditions: Klebsiella pneumoniae; K. pneumoniae (n=100) clinical isolates.
Description: Figure 4 Antimicrobial activity of fabimycin against clinical isolates. (A) The susceptibility of clinical isolates (Gram-negative species and S. aureus) to fabimycin, Debio-1452-NH3, and Debio-1452. MICs performed in biological triplicate. (B) Further exploration of the breadth of fabimycin’s antibacterial activity against diverse clinical isolate panels of K. pneumoniae and A. baumannii, as compared to levofloxacin. MICs performed in biological duplicate.
as §1, §2, §3, §4
Error bars represent the standard error of the mean of three biological replicates. All compounds evaluated in biological assays were ≥95% pure.

A further assay deals with A. baumannii AR-0088. Put plainly: Dose-ranging and efficacy, neutropenic thigh infection. Type of assay: in vivo, mouse. To be noted: neutropenic BALB/c mice, burden at 26 h. An excerpt: Neutropenic thigh infection model
Acclimated CD-1 mice (see above) were rendered neutropenic prior to the experiment via cyclophosphamide treatment. […]
Dose-ranging and efficacy of fabimycin
The protocol to assess fabimycin’s efficacy in A. baumannii-infected mice (strain: AR-0088) was approved by the IACUC at Pharmacology Discovery Services, Taiwan, Ltd. (protocol number: IM003-01282019). In this study, neutropenic female BALB/c mice 7-8 weeks in age from BioLASCO Taiwan (AAALAC-certified Charles River Licensee) weighing 18 ± 2 grams were used. The mice were rendered neutropenic and inoculated in the same method as used for the pharmacokinetic study. Fabimycin was formulated in 17% Cremophor EL/3% SBE-β-CD and IV administered. Colistin was formulated in 0.9% NaCl and subcutaneously (SC) administered.
5 or 30 minutes after dosing with respect to IV and SC route to detect acute toxicity, which was recorded and reported, […]
Animals were euthanized using compressed CO2 gas in a CO2 gas chamber. […] Bacterial burden in the tissue homogenates was determined by performing 10-fold serial dilutions and plating 0.1 mL of each to nutrient agar plates. Colonies were counted after 18 - 24 h incubation. The colony-forming unit value per tissue (CFU/thigh) was calculated. […]
IM011-12282020). […] Tissues were collected and pathogen burden evaluated by dilution plating technique on nutrient agar plates.

In brackets after ≈: the same amount, converted by molar mass.

Turning to `Cc1c(CN(C)C(=O)/C=C/c2cnc3c(c2)CC[C@H](N)C(=O)N3)oc2ccccc12` [fabimycin], the minimum inhibitory concentration (MIC) in [1], in [2], in assay [3], in [4], in assay [5] and in assay [6] was over 128 µg/mL throughout. The minimum inhibitory concentration (MIC) in assay [7] came to 64 µg/mL (≈ 158 µM); in assay [8], 128 µg/mL (≈ 316 µM). In assay [9], this molecule returned an MIC50 of 1 µg/mL (≈ 2.47 µM). The same molecule had an MIC90 in assay [9] of 4 µg/mL (≈ 9.89 µM). Besides, the “reduction of bacterial burden” value in the assay with A. baumannii AR-0088 (75 mg/kg IV four times a day, NDM-1 containing strain) is ~2 log(CFU/thigh). In addition, the “dose at which significant dose-dependent responses begin” value with A. baumannii AR-0088 (IV four times a day, doses 1.25–75 mg/kg) was 30 mg/kg.

For orientation: MIC means the lowest concentration found to suppress growth. High values mean a need for much substance, low ones inhibition by little substance. What is called MIC50 is the lowest concentration that inhibits either 50% of growth or 50% of the strains tested, depending on the study. In general, MIC90 refers to an inhibitory concentration at the 90% level, which refers to growth in some studies and to a panel of isolates in others. Low values mean greater potency, high ones weaker potency.
